Test results: ChEMBL document CHEMBL3885881, “DrugMatrix”

Organism: Rattus norvegicus
Test: DrugMatrix - Regimen: Daily Repeat
Type: toxicity, organism-based, Sprague-Dawley
Parameters: regimen Daily Repeat, gender Male, age 6-8 weeks
Settings: in vivo, po, route oral GAVAGE, vehicle .5 % CMC; for ABSOLUTE BASOPHIL / ABSOLUTE EOSINOPHIL / ABSOLUTE LYMPHOCYTE / ABSOLUTE MONOCYTE / ABSOLUTE SEGMENTED NEUTROPHIL / BASOPHIL / EOSINOPHIL / ERYTHROCYTE COUNT / HEMATOCRIT / HEMOGLOBIN / LEUKOCYTE COUNT / LYMPHOCYTE / MEAN CORPUSCULAR HEMOGLOBIN / MEAN CORPUSCULAR HEMOGLOBIN CONCENTRATION / MEAN CORPUSCULAR VOLUME / MONOCYTE / NEUTROPHIL / NUCLEATED RED BLOOD CELLS / PLATELET COUNT: tissue Blood; for ALANINE AMINOTRANSFERASE / ALBUMIN / ALKALINE PHOSPHATASE / ASPARTATE AMINOTRANSFERASE / BLOOD UREA NITROGEN / CARBON DIOXIDE / CHLORIDE / CHOLESTEROL / CREATINE PHOSPHOKINASE / CREATININE / GLUCOSE / LACTATE DEHYDROGENASE / LIPASE / PHOSPHORUS / POTASSIUM / SODIUM / TOTAL BILIRUBIN / TOTAL PROTEIN / URIC ACID: tissue Plasma
[1] = 0 mg/kg, 72 h, dose level Control, time 3 day
[2] = 0 mg/kg, 120 h, dose level Control, time 5 day
[3] = 150 mg/kg, 72 h, dose level Low, time 3 day

For `C[C@]1(Cn2ccnn2)[C@H](C(=O)O)N2C(=O)C[C@H]2S1(=O)=O` [TAZOBACTAM], the “ABSOLUTE BASOPHIL” value [1] was 0 CELLS/uL, the “ABSOLUTE EOSINOPHIL” value [1] was 222.83 CELLS/uL and the “ABSOLUTE LYMPHOCYTE” value [1] was 14453 CELLS/uL. For the same molecule, the “ABSOLUTE MONOCYTE” value [1] was 0 CELLS/uL, the “ABSOLUTE SEGMENTED NEUTROPHIL” value [1] was 1490.83 CELLS/uL and the BASOPHIL [1] was 0%. For the same molecule, the EOSINOPHIL [1] was 1.33%, the “ERYTHROCYTE COUNT” value [1] was 5.76 x10E6/uL and the HEMATOCRIT [1] was 36.52%. The HEMOGLOBIN [1] was 13.45 G/DL, the “LEUKOCYTE COUNT” value [1] was 16.17 x10E3/uL and the LYMPHOCYTE [1] was 89.33%. The “MEAN CORPUSCULAR HEMOGLOBIN” value [1] was 23.37 pg, the “MEAN CORPUSCULAR HEMOGLOBIN CONCENTRATION” value [1] was 36.85 G/DL and the “MEAN CORPUSCULAR VOLUME” value [1] was 63.47 fL. For the same molecule, the MONOCYTE [1] was 0%, the NEUTROPHIL [1] was 9.33% and the “NUCLEATED RED BLOOD CELLS” value [1] was 0 /100WBC. For the same molecule, the “PLATELET COUNT” value [1] was 1239.5 x10E3/uL, the “ALANINE AMINOTRANSFERASE” value [1] was 43.83 u/L and the ALBUMIN [1] was 4.27 G/DL. For the same molecule, the “ALKALINE PHOSPHATASE” value [1] was 398.83 u/L, the “ASPARTATE AMINOTRANSFERASE” value [1] was 81.17 u/L and the “BLOOD UREA NITROGEN” value [1] was 17.67 mg/dL. For the same molecule, the “CARBON DIOXIDE” value [1] was 27.5 mmol/L, the CHLORIDE [1] was 99.17 MEQ/L and the CHOLESTEROL [1] was 74 mg/dL. For the same molecule, the “CREATINE PHOSPHOKINASE” value [1] was 331.5 u/L, the CREATININE [1] was 0.2 mg/dL and the GLUCOSE [1] was 171.33 mg/dL. The “LACTATE DEHYDROGENASE” value [1] was 241.67 u/L, the LIPASE [1] was 9.5 u/L and the PHOSPHORUS [1] was 12.25 mg/dL. For the same molecule, the POTASSIUM [1] was 6.33 MEQ/L, the SODIUM [1] was 141.28 MEQ/L and the “TOTAL BILIRUBIN” value [1] was 0.15 mg/dL. The “TOTAL PROTEIN” value [1] was 5.98 G/DL, the “URIC ACID” value [1] was 1.63 mg/dL and the “ABSOLUTE BASOPHIL” value [2] was 0 CELLS/uL. For the same molecule, the “ABSOLUTE EOSINOPHIL” value [2] was 148.67 CELLS/uL, the “ABSOLUTE LYMPHOCYTE” value [2] was 16020.5 CELLS/uL and the “ABSOLUTE MONOCYTE” value [2] was 29.17 CELLS/uL. The “ABSOLUTE SEGMENTED NEUTROPHIL” value [2] was 1468.33 CELLS/uL, the BASOPHIL [2] was 0% and the EOSINOPHIL [2] was 1%. The “ERYTHROCYTE COUNT” value [2] was 5.78 x10E6/uL, the HEMATOCRIT [2] was 35.77% and the HEMOGLOBIN [2] was 13.4 G/DL. The “LEUKOCYTE COUNT” value [2] was 17.67 x10E3/uL, the LYMPHOCYTE [2] was 90.5% and the “MEAN CORPUSCULAR HEMOGLOBIN” value [2] was 23.22 pg. For the same molecule, the “MEAN CORPUSCULAR HEMOGLOBIN CONCENTRATION” value [2] was 37.47 G/DL, the “MEAN CORPUSCULAR VOLUME” value [2] was 61.92 fL and the MONOCYTE [2] was 0.17%. For the same molecule, the NEUTROPHIL [2] was 8.33%, the “NUCLEATED RED BLOOD CELLS” value [2] was 0.17 /100WBC and the “PLATELET COUNT” value [2] was 1255.5 x10E3/uL. The “ALANINE AMINOTRANSFERASE” value [2] was 46.5 u/L, the ALBUMIN [2] was 4.38 G/DL and the “ALKALINE PHOSPHATASE” value [2] was 336 u/L. The “ASPARTATE AMINOTRANSFERASE” value [2] was 76.5 u/L, the “BLOOD UREA NITROGEN” value [2] was 20 mg/dL and the “CARBON DIOXIDE” value [2] was 27.5 mmol/L. The CHLORIDE [2] was 101 MEQ/L, the CHOLESTEROL [2] was 71.33 mg/dL and the “CREATINE PHOSPHOKINASE” value [2] was 231.83 u/L. For the same molecule, the CREATININE [2] was 0.37 mg/dL, the GLUCOSE [2] was 168.83 mg/dL and the “LACTATE DEHYDROGENASE” value [2] was 174 u/L. For the same molecule, the LIPASE [2] was 8.67 u/L, the PHOSPHORUS [2] was 11.48 mg/dL and the POTASSIUM [2] was 6.82 MEQ/L. The SODIUM [2] was 143.8 MEQ/L, the “TOTAL BILIRUBIN” value [2] was 0.2 mg/dL and the “TOTAL PROTEIN” value [2] was 5.98 G/DL. For the same molecule, the “URIC ACID” value [2] was 1.83 mg/dL, the “ABSOLUTE BASOPHIL” value [3] was 0 CELLS/uL and the “ABSOLUTE EOSINOPHIL” value [3] was 82.67 CELLS/uL. For the same molecule, the “ABSOLUTE LYMPHOCYTE” value [3] was 6416 CELLS/uL, the “ABSOLUTE MONOCYTE” value [3] was 0 CELLS/uL and the “ABSOLUTE SEGMENTED NEUTROPHIL” value [3] was 534.67 CELLS/uL. For the same molecule, the BASOPHIL [3] was 0%, the EOSINOPHIL [3] was 1% and the “ERYTHROCYTE COUNT” value [3] was 5.07 x10E6/uL. The HEMATOCRIT [3] was 32.53%, the HEMOGLOBIN [3] was 12.5 G/DL and the “LEUKOCYTE COUNT” value [3] was 7.03 x10E3/uL. For the same molecule, the LYMPHOCYTE [3] was 91.67%, the “MEAN CORPUSCULAR HEMOGLOBIN” value [3] was 24.63 pg and the “MEAN CORPUSCULAR HEMOGLOBIN CONCENTRATION” value [3] was 38.43 G/DL. The “MEAN CORPUSCULAR VOLUME” value [3] was 64.17 fL, the MONOCYTE [3] was 0% and the NEUTROPHIL [3] was 7.33%. For the same molecule, the “NUCLEATED RED BLOOD CELLS” value [3] was 0 /100WBC, the “PLATELET COUNT” value [3] was 1184.33 x10E3/uL and the “ALANINE AMINOTRANSFERASE” value [3] was 52.67 u/L. The ALBUMIN [3] was 4.23 G/DL, the “ALKALINE PHOSPHATASE” value [3] was 410.33 u/L and the “ASPARTATE AMINOTRANSFERASE” value [3] was 79.67 u/L. The “BLOOD UREA NITROGEN” value [3] was 16.67 mg/dL, the “CARBON DIOXIDE” value [3] was 24.33 mmol/L and the CHLORIDE [3] was 104 MEQ/L. The CHOLESTEROL [3] was 78 mg/dL, the “CREATINE PHOSPHOKINASE” value [3] was 280.33 u/L and the CREATININE [3] was 0.2 mg/dL. The GLUCOSE [3] was 152.33 mg/dL, the “LACTATE DEHYDROGENASE” value [3] was 134.33 u/L and the LIPASE [3] was 8 u/L. For the same molecule, the PHOSPHORUS [3] was 11.47 mg/dL, the POTASSIUM [3] was 6.02 MEQ/L and the SODIUM [3] was 144.87 MEQ/L. The “TOTAL BILIRUBIN” value [3] was 0.2 mg/dL, the “TOTAL PROTEIN” value [3] was 5.9 G/DL and the “URIC ACID” value [3] was 1.03 mg/dL.
